Experimental data taken from ChEMBL document CHEMBL4673197, “Microwave-assisted green synthesis of bile acid derivatives and evaluation of glucocorticoid receptor binding” (RSC Med Chem, 2021).
Activity calls are given as the source filed them. The rule behind the calls is not given here.

Columns and labels:
Format in all cases: cell-based
[1] = molecular target: T1, Glucocorticoid receptor (Rattus norvegicus) (UniProt P06536); experiment: Binding affinity to enhanced YFP tagged rat glucocorticoid receptor (497-795)-LBD expressed in Saccharomyces cerevisiae FY250 cells by measuring increase in fluorescence intensity incubated at 100 uM for 15 hrs by fluorescence microscopy
T1 sequence (whole entry): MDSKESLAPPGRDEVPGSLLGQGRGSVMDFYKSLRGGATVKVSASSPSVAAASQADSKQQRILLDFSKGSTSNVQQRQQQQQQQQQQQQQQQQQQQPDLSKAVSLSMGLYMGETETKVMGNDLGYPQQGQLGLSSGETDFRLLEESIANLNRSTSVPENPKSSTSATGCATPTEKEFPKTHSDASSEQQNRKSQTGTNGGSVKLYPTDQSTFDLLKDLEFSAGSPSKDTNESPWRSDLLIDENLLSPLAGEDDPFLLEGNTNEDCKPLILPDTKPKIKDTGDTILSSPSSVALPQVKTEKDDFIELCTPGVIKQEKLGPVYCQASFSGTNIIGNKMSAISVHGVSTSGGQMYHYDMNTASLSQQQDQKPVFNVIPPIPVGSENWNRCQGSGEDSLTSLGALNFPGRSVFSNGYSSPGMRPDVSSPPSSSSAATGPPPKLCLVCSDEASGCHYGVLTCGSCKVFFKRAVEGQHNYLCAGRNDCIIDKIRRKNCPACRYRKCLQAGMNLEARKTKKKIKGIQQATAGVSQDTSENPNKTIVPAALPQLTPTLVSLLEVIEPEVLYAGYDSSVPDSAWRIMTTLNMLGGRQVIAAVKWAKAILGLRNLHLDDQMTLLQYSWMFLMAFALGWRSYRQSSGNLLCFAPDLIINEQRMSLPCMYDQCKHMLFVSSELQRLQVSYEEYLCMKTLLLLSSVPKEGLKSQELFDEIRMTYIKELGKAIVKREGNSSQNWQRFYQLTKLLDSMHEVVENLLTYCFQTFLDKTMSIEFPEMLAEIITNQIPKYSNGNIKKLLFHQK

[2] = molecular target: T1, Glucocorticoid receptor (Rattus norvegicus); experiment: Binding affinity to enhanced YFP tagged rat glucocorticoid receptor (497-795)-LBD expressed in Saccharomyces cerevisiae FY250 cells by measuring fluorescence changes incubated at 100 uM for 15 hrs by fluorescence spectroscopy
[3] = molecular target: T1, Glucocorticoid receptor (Rattus norvegicus); experiment: Binding affinity to enhanced YFP tagged rat glucocorticoid receptor (497-795)-LBD expressed in Saccharomyces cerevisiae FY250 cells by measuring fluorescence changes incubated for 15 hrs by fluorescence spectroscopy

| Activity [1] | Activity [3] | Structure (SMILES) | Activity [2] |
| --- | --- | --- | --- |
| Active | – | C[C@H](CCC(=O)Nc1ccccc1)[C@H]1CC[C@H]2[C@@H]3CC[C@@H]4C[C@H](O)CC[C@]4(C)[C@H]3C[C@H](O)[C@]12C | Active |
| Active | Dose-dependent effect | C[C@]12C=CC(=O)C=C1CC[C@@H]1[C@@H]2[C@@H](O)C[C@@]2(C)[C@H]1CC[C@]2(O)C(=O)CO | – |

| Structure (SMILES) | Activity [1] | Activity [3] | Activity [2] |
| --- | --- | --- | --- |
| C[C@H](CCC(=O)O)[C@H]1CC[C@H]2[C@@H]3CC[C@@H]4CCCC[C@]4(C)[C@H]3CC[C@]12C | Active | – | Active |
